≈ marks a conversion by molar mass, not a printed value. Where “and” joins values, the source holds several entries; their conditions need not be identical. Equal entries are not always repeated.
How the values were obtained:
[1] = system: S. aureus (ATCC 29213); test: MIC, serial broth dilution; assay type: cell-based, Staphylococcus aureus; details: MHB, 18 h, 37° C.
Method: (§1) The peptidomimetics designed in present invention were evaluated as antibacterial therapeutics against a broad range of bacterial strains by broth microdilution method. The antibacterial activity of the peptidomimetics was reported in terms of the minimum inhibitory concentrations (MIC).
(§2) Following bacterial strains were used in this study: S. aureus (ATCC 29213), methicillin resistant S. aureus (ATCC 33591), Staphylococcus epidermidis (ATCC 12228), methicillin resistant Staphylococcus epidermidis(ATCC 51625), Enterococcus faecalis (ATCC 7080), Escherichia coli (ATCC 11775), and Acinetobacter baumannii (ATCC 19606). Antibacterial activity was evaluated using a modified serial broth dilution method in accordance with Clinical Laboratory Standard Institute guidelines [Methods for dilution antimicrobial susceptibility tests for bacteria that grow aerobically-7th ed. Approved standard M7-A7. Clinical and Laboratory Standards Institute, Wayne, Pa., Biochim. Biophys. Acta 1798:1864-1875, 2010.]. Briefly, the inoculums were prepared from mid-log phase bacterial cultures. Peptidomimetics were incubated with bacterial suspension in Muller Hinton broth media (10^5 CFU/mL) in 96 well microtitre plate. The plates were incubated overnight with agitation (200 rpm) at 37° C. After 18 h, absorbance was measured at 630 nm. Cultures without test peptidomimetics were used as positive control. Un-inoculated Mueller Hinton Broth (MHB) was used as negative control. Tests were carried out in duplicate on at least three different days. […] For comparison standard peptide antibiotics vancomycin (VAN) and polymyxin B (PMB) were also assayed under identical conditions (Table 2). […] Further, antibacterial activity of active peptidomimetics 1c and 1d were also evaluated against MRSA in presence of 25% v/v human serum as well as bovine serum.

[2] = system: methicillin resistant S. aureus (ATCC 33591); test: MIC, serial broth dilution; assay type: cell-based, Staphylococcus aureus; details: MHB, 18 h, 37° C.
Method: as §1, §2

[3] = system: Acinetobacter baumannii (ATCC 19606); test: MIC, serial broth dilution; assay type: cell-based; details: MHB, 18 h, 37° C.
Method: as §1, §2

[4] = system: Enterococcus faecalis (ATCC 7080); test: MIC, serial broth dilution; assay type: cell-based; details: MHB, 18 h, 37° C.
Method: as §1, §2

[5] = system: Staphylococcus epidermidis (ATCC 12228); test: MIC, serial broth dilution; assay type: cell-based; details: MHB, 18 h, 37° C.
Method: as §1, §2

[6] = system: methicillin resistant Staphylococcus epidermidis (ATCC 51625); test: MIC, serial broth dilution; assay type: cell-based; details: MHB, 18 h, 37° C.
Method: as §1, §2

[7] = system: Escherichia coli (ATCC 11775); test: MIC, serial broth dilution; assay type: cell-based; parameters: MIC E. coli. (ATCC 11775): unit not given here; details: MHB, 18 h, 37° C.
Method: as §1, §2

[8] = system: human red blood cells (hRBC); test: Hemolytic activity; assay type: cell-based; details: 250 μg/mL, 1 h at 37° C.
Method: Hemolytic activity of the peptidomimetics was evaluated on human red blood cells (hRBC) as described previously with minor modifications [FEBS J, 273:4040-4054, 2006; Biochim Biophys Acta., 1798:1864-1875, 2010]. Briefly, 100 μL of fresh hRBC suspension 4% v/v in NaCl/Pi (35 mM phosphate buffer, 150 mM NaCl, pH 7.2) was placed in a 96-well plate. After incubation of the peptidomimetics (100 μL) in the hRBC suspension for 1 h at 37° C., the plates were centrifuged and supernatant (100 μL) was transferred to fresh 96-well plate. Absorbance was read at 540 nm using ELISA plate reader (Molecular Devices). Percent hemolysis was calculated using the following formula: % hemolysis=100[(A−A0)/(At−A0)]
Where, A represents absorbance of sample wells at 540 nm. Also A0 and At represents 0% and 100% hemolysis determined in NaCl/Pi and 1% Triton X-100, respectively (Table 2). […] Peptidomimetics 1e and 1f caused 31% and 30% hemolysis at 250 μg/mL. Peptidomimetics 2d, 2e and 2f caused significant hemolysis with 83%, 96% and 88% damage to hRBCs at […] respectively.

[9] = system: peripheral blood mononuclear cells (PBMCs); test: LDH release cytotoxicity assay; assay type: cell-based, human; details: 20 μg/mL, 24 h
Method: For the experiment a protocol as used previously was employed with minor modifications [J. Immunol. Methods, 115:61-69, 1988; Chem. Biol. 20:1286-1295, 2013.]. Briefly, blood was collected from healthy human donors in sodium heparin anticoagulant tubes in accordance with institutional guidelines. The blood was diluted 1:1 with NaCl/Pi (35 mM phosphate buffer, 150 mM NaCl, pH 7.2). Blood cells were separated over histopaque (Sigma-aldrich) by centrifugation for 30 min at 1200 rpm. The PBMCs were collected and washed twice with NaCl/Pi (35 mM phosphate buffer, 150 mM NaCl, pH 7.2). The cells were then re-suspended in complete RPMI 1640 medium (Himedia) supplemented with 10% FBS (Sigma) and quantified by trypan blue exclusion on microscope. PBMCs (1×10^6 cells/mL) in complete media were seeded into a 24-well plate and left in the incubator for 2 h at 37° C. in 5% CO2. The cells were then treated with 1c, 1d and VAN at desired concentrations (20 μg/mL). 2% Triton X-100 was used as a […] control. After 24 h of incubation, the content of each well was transferred to sterile 1.5 mL eppendorf tube and cells were pelleted at 2000 rpm for 10 min. The supernatant was assessed for the release of LDH by using the TOX7 kit (Sigma). […]

[10] = system: S. aureus (ATCC 33591); test: Resistance development study, serial passage at sub MIC; assay type: cell-based, Staphylococcus aureus; details: 17 serial passages at sub MIC
Method: FIG. 5: Illustration of resistance development study in S. aureus (ATCC 33591) after 17 serial passages with sub MIC of 1c/1d or antibiotic treatment. The fold change in MIC is the ratio of the MIC after 17 passages relative to that MIC observed before first passage.
To determine potential of active peptidomimetics against resistance development, in vitro serial passage method at sub inhibitory concentration was done. Briefly, bacterial suspension (100 μL) from duplicate wells at the concentration of sub-MIC was used to inoculate fresh culture. The culture was grown to obtain approximately 10^5 CFU/mL for the next experiment. These bacterial suspensions were then incubated with desired concentration of antibacterial agents for 18 h to determine new MIC. The same sub culturing protocol was used for next 16 passages and MIC was determined using OD630 nm as described previously in the text [Chem. Biol., 20:1286-1295, 2013.]

[11] = system: MRSA (ATCC 33591); test: Planktonic MIC in biofilm media (MICb); assay type: cell-based, Staphylococcus aureus; details: TSB with 0.5% NaCl and 0.25% glucose

Compound | MIC S. aureus (ATCC 29213) [1] | MIC MRSA (ATCC 33591) [2] | MIC A. baumannii (ATCC 19606) [3] | MIC E. facaelis (ATCC 7080) [4] | MIC S. epidermidis (ATCC 12228) [5] | MIC MRSE (ATCC 51625) [6] | MIC E. coli. (ATCC 11775) [7] | % H, percentage hemolysis of human RBCs [8] | % LDH release against peripheral blood mononuclear cells [9] | increase in MIC after 17 passages [10] | MICb, planktonic MIC in biofilm media [11]
NCCCNCCCCNCCCNC(=O)C(Cc1c[nH]c2ccccc12)NC(=O)C(Cc1c[nH]c2ccccc12)NC(=O)Cc1ccc(C(F)(F)F)cc1 (stereo not shown) [1c] | 0.0017 µg/mL (≈ 0.00223 µM) | 3.5 µg/mL (≈ 4.6 µM) | 0.0284 µg/mL (≈ 0.0373 µM) | 0.0284 µg/mL (≈ 0.0373 µM) | 1.7 µg/mL (≈ 2.23 µM) | 0.0035 µg/mL (≈ 0.0046 µM) | 56.8 | 2% | 5.78±6.58% and 5.78% | 4 fold | 7.1 µg/mL
CCCCCCCCCC(=O)NC(Cc1c[nH]c2ccccc12)C(=O)NC(Cc1c[nH]c2ccccc12)C(=O)NCCCNCCCCNCCCN (stereo not shown) [1d] | 0.0017 µg/mL (≈ 0.00233 µM) | 1.7 µg/mL (≈ 2.33 µM) | 0.1136 µg/mL (≈ 0.156 µM) | 0.0035 µg/mL (≈ 0.0048 µM) | 1.7 µg/mL (≈ 2.33 µM) | 0.0017 µg/mL (≈ 0.00233 µM) | 14.2 | 9% | 17.56±10.15% and 17.5% | 2 fold | 3.5 µg/mL
